From patent publication US20130096145A1, “Use of 1H-quinazoline-2,4-diones” (Novartis AG, priority 2010, published 2013) come the findings set out here.

As usually defined, the ED50 is the dose at which the effect has come halfway, by size or by number of responders.

One experiment relates to mouse. Briefly: Oral bioavailability: audiogenic mouse test and/or MES test. The format is in vivo. To be noted: oral administration. As to the method: The oral bioavailability was tested using the audiogenic mouse test (Audiogenic seizures, R. L. Collins; Chapter 14, pages: 347-372. In: Experimental Models of Epilepsy; By: Pupura, Penry, Tower, Woodbury, Walter, Raven Press, New York, 1972. Standard Book Number: 0-911216-26-X) and/or the MES test.
(§1) Compounds of the invention were tested in OF1 mice using the maximal electroshock test (MES Test) described in detail by Schmutz et al., Naunyn-Schmiedeberg's Arch Pharmacol 1990, 342, 61-66. Briefly, generalized tonic-clonic convulsions of the hind extremities were induced by passing electrical current through temporal electrodes (50 Hz, 18 mA, 0.2s). […] 30 mg/kg carbamazepine was used as a positive control; mice were classified as protected by a compound if the duration of the seizure lasted only 3 second or less. Five mice were used for each treatment condition and the percentage of protected mice was used as readout (i.e. a compound could give 0%, 20%, 40%, 60%, 80% or 100% protection). Compounds of the invention were given at a dose of 50 mg/kg, p.o., 1 hour prior to induction of convulsions (i.e. “pre-treatment time -1 h”). ED50 values (ED: effective dose) were calculated using GraphPad Prism, v4.02. 15 s after shock administration, mouse blood was collected for determination of compounds' blood exposure.

The subject of a further experiment is OF1 mice. The experiment in a line: Murine maximal electroshock test (MES Test). The format is in vivo. To be noted: for MES-Test (1 h, po) protection @50: percentage of protected mice (5 per condition) @50, p.o. As to the method: as §1
For orientation: The maximal electroshock test induces tonic seizures with an electrical stimulus.

Turning to `CC(C)n1nccc1-c1cc2c(=O)n(NS(C)(=O)=O)c(=O)[nH]c2cc1CF` [Compound C-3, N-[7-Fluoromethyl-6-(2-isopropyl-2H-pyrazol-3-yl)-2,4-dioxo-1,4-dihydro-2H-quinazolin-3-yl]-methanesulfonamide], in the experiment with mouse, the “In vivo orally active” value is listed as “Yes”. In the experiment with OF1 mice (Mus musculus, po, pre-treatment time 1 h, protected = seizure duration 3 s or less), the ED50 amounted to 13.5 mg/kg.

On to `CCc1cc2[nH]c(=O)n(NS(C)(=O)=O)c(=O)c2cc1-c1ccnn1C(C)C` [Compound C-6, N-[7-Ethyl-6-(2-isopropyl-2H-pyrazol-3-yl)-2,4-dioxo-1,4-dihydro-2H-quinazolin-3-yl]-methanesulfonamide], for which the “In vivo orally active” value in the experiment on mouse is recorded as “yes”. For the same compound, the “MES-Test (1 h, po) protection @50” value in the experiment with OF1 mice (1 h) amounted to 20% @50.

Consider `CC(C)c1cc2[nH]c(=O)n(NS(C)(=O)=O)c(=O)c2cc1-c1ccnn1C(C)C` [Compound C-8, N-[7-Isopropyl-6-(2-isopropyl-2H-pyrazol-3-yl)-2,4-dioxo-1,4-dihydro-2H-quinazolin-3-yl]-methanesulfonamide], for which the “In vivo orally active” value with mouse is on record as “yes”. In the experiment on OF1 mice (1 h), the “MES-Test (1 h, po) protection @50” value is recorded as 40% @50.

On to `Cn1nccc1-c1cc2c(=O)n(NS(C)(=O)=O)c(=O)[nH]c2cc1C(C)(F)F` [Compound C-15, N-[7-(1,1-difluoro-ethyl)-6-(2-methyl-2H-pyrazol-3-yl)-2,4-dioxo-1,4-dihydro-2H-quinazolin-3-yl]-methanesulfonamide], for which the “In vivo orally active” value in the experiment on mouse is “Yes”. In the experiment on OF1 mice (percentage of protected mice (5 per condition) @20, p.o., 1 h), the “MES-Test (1 h, po) protection @20” value amounted to 80% @20.
